# Source: patent US20190069548A1, “AGENT FOR CONTROLLING THRIPS AND USE THEREOF” (RIKEN, priority 2016, published 2019)
# Key:
# Format in all cases: in vivo
# [1] = system: Frankliniella occidentalis; assay: Two-plant choice test of thrips repellency after spraying (Examples 1 and 2); details: for repellency against thrips (number of thrips on plant vs water control): 100 μM solution sprayed; for repellency against thrips (number of thrips on plant vs water control) / repellency against Frankliniella occidentalis: thrips released two days after, counted 24 h later; for repellency against Frankliniella occidentalis: 100 μM PDJ sprayed
# Protocol: Then, 100 μM PDJ solution was directly sprayed on one of the two plant individuals by use of a spraying device. On the other one of the two plant individuals, only water was sprayed similarly. This plant individual on which only water was sprayed was a control. Two days after the above treatment, 30 female adult thrips of Frankliniella occidentalis were released at a middle point between the two plant individuals. Twenty-four hours after that release of Frankliniella occidentalis, the number of thrips on each plant individual was counted so that which one of the plant individuals the thrips had moved to was found. With use of 100 μM JA solution, a similar experiment was carried out. Further, similar experiments with use of the 100 μM PDJ solution and the 100 μM JA solution were carried out on tomato (Solanum lycopersicum) three weeks after seeding.
# (§1) Then, 100 μM PDJ solution was sprayed on an entire aerial part of only one of the two plant individuals by use of a spraying device. On the other one of the two plant individuals, only water was sprayed by a similar method. This plant individual on which only water was sprayed was a control. Two days after the above spraying, 30 female adult thrips of Frankliniella occidentalis were released at a middle point between the two plant individuals. Twenty-four hours after that release of Frankliniella occidentalis, the number of thrips on each plant individual was counted so that which one of the plant individuals the thrips had moved to was found.
# Further, the target plant was changed to crown daisy (Glebionis coronaria) of the family Asteraceae, and repellency against thrips was studied similarly.
# [2] = system: Frankliniella occidentalis; assay: Repeated spraying on tomato, thrips count on third and higher-order true leaves (Example 5); details: counted forty days after release
# Protocol: Then, 100 μM PDJ solution was directly prayed on an entire aerial part of only one of the two plant individuals by use of a spraying device. The above spraying was carried out 3 times, 4 times or 5 times at intervals of 5 to 7 days. On the other one of the two plant individuals, only water was sprayed by a similar method. This plant individual on which only water was sprayed was a control. Four days after the last spraying, 30 female adult thrips of Frankliniella occidentalis were released at a middle point between the two plant individuals. Forty days after that release of Frankliniella occidentalis, the number of thrips on the third and higher-order true leaves was counted. […] In the case of the plant individual on which the PDJ solution was sprayed 3 times, the total number of thrips attached to the third and higher-order true leaves was approximately 20% relative to that of the control. In the case of the plant individual on which the PDJ solution was sprayed 4 times or 5 times, the total number of thrips attached to the third and higher-order true leaves was 0% relative to that of the control. In this way, it was clarified that in a case where spraying is carried out 4 times or 5 times at intervals of 5 days to 7 days, repellency against thrips is higher than that in a case where spraying is carried out 3 times.
# Thrips tabaci Lindeman = assay: Two-plant choice test of thrips repellency after spraying (Example 3); details: 100 μM PDJ sprayed, thrips released two days after, counted 24 h later
# Protocol: Then, 100 μM PDJ was sprayed on an entire aerial part of only one of the two plant individuals by use of a spraying device. On the other one of the two plant individuals, only water was sprayed by a similar method. This plant individual on which only water was sprayed was a control. Two days after the above spraying, 30 female adult thrips of Thrips tabaci Lindeman were released at a middle point between the two plant individuals. Twenty-four hours later, the number of Thrips tabaci Lindeman on each plant individual was counted so that which one of the plant individuals the thrips had moved to was found. As a result, with regard to the green pepper (bell pepper) (Capsicum annuum L. ‘grossum’), an attachment rate of Thrips tabaci Lindeman was approximately 40% relative to that of the control. Meanwhile, with regard to cabbage (Brassica oleracea var. capitata), an attachment rate of Thrips tabaci Lindeman was approximately 40% relative to that of the control.
# [3] = system: Frankliniella occidentalis; assay: Spraying time relative to development of fourth true leaf of tomato, thrips count (Examples 6 and 7); details: counted six days after release
# Protocol: Then, 100 μM PDJ solution was sprayed on an entire aerial part of only one of the two plant individuals by use of a spraying device. On the other one of the two plant individuals, only water was sprayed by a similar method. This plant individual on which only water was sprayed was a control. The above spraying was carried out at time points 3 days, 7 days, 10 days and 15 days after the start of development of the fourth true leaf. Four days after the above spraying, 30 female adult thrips of Frankliniella occidentalis were released at a middle point between the two plant individuals. Six days after that release of Frankliniella occidentalis, the number of thrips on the fourth true leaf was counted. […] The number of thrips attached to the fourth true leaf was approximately 5% of that of the control in the case of the spraying carried out at the time point 3 days after the start of the development of the fourth true leaf, approximately 10% of that of the control in the case of the spraying carried out at the time point 7 days after the start of the development, approximately 40% of that of the control in the case of the spraying carried out at the time point 10 days after the start of the development, and approximately 50% of that of the control in the case of the spraying carried out at the time point 15 days after the start of the development. In this way, it was clarified that in a case where the spraying was carried out within 7 days from the start of development of a new leaf of a plant, repellency against thrips given to the plant is higher than that in a case where spraying is carried out more than 7 days after the start of the development. In a greenhouse whose room temperature was kept in a range of 20° C. to 25° C., two plant individuals of tomato (Solanum lycopersicum) (approximately 1 to 1.5 months after seeding), which had developed 3 true leaves, were placed apart from each other such that a distance of […] was provided and kept between these plant individuals. Then, 100 μM PDJ solution was sprayed on an entire aerial part of only one of the two plant individuals by use of a spraying device. At this time point, the fourth true leaf was not yet developed. On the other one of the two plant individuals, only water was sprayed by a similar method. This plant individual on which only water was sprayed was a control. Four days after the above spraying, 30 female adult thrips of Frankliniella occidentalis were released at a middle point between the two plant individuals. Six days after that release of Frankliniella occidentalis, the number of thrips on the fourth true leaf was counted. […] The number of thrips attached to the fourth true leaf was approximately 100% of that of the control.
# Frankliniella intonsa = assay: Two-plant choice test of thrips repellency after spraying (Example 4); details: 100 μM PDJ sprayed, thrips released two days after, counted 24 h later
# Protocol: as §1, with “intonsa” for “occidentalis”, “intonsa,” for “occidentalis,”
# [4] = 100 μM PDJ sprayed when fourth true leaf was not yet developed (Example 7)
compound,measurement,setting,value
"CC/C=C\CC1C(=O)CCC1CC(=O)OC (stereo not shown) [JA, methyl jasmonate, reference compound]",repellency against thrips (number of thrips on plant vs water control),[1]; Arabidopsis thaliana,can give repellency against thrips
same,repellency against thrips (number of thrips on plant vs water control),[1]; tomato (Example 1),can give repellency against thrips
prohydrojasmon [PDJ],total number of thrips attached to the third and higher-order true leaves relative to that of the control,[2]; 100 μM PDJ sprayed 3 times at intervals of 5 to 7 days,approximately 20%
same,total number of thrips attached to the third and higher-order true leaves relative to that of the control,[2]; 100 μM PDJ sprayed 4 times at intervals of 5 to 7 days,0%
same,total number of thrips attached to the third and higher-order true leaves relative to that of the control,[2]; 100 μM PDJ sprayed 5 times at intervals of 5 to 7 days,0%
same,repellency against thrips (number of thrips on plant vs water control),[1]; Arabidopsis thaliana,can give repellency against thrips
same,repellency against Frankliniella occidentalis,[1]; cabbage,sufficient repellency
same,repellency against Frankliniella occidentalis,[1]; chrysanthemum,sufficient repellency
same,repellency against thrips,"[1]; crown daisy (Glebionis coronaria), studied similarly to Example 2",repellency against thrips is given
same,repellency against Frankliniella occidentalis,[1]; cucumber,sufficient repellency
same,repellency against Frankliniella occidentalis,[1]; green pepper,sufficient repellency
same,repellency against Frankliniella occidentalis,[1]; strawberry,sufficient repellency
same,repellency against thrips (number of thrips on plant vs water control),[1]; tomato (Example 1),can give repellency against thrips
same,repellency against Frankliniella occidentalis,[1]; tomato (Example 2),sufficient repellency
same,attachment rate of Thrips tabaci Lindeman relative to that of the control,Thrips tabaci Lindeman; cabbage,approximately 40%
same,attachment rate of Thrips tabaci Lindeman relative to that of the control,Thrips tabaci Lindeman; green pepper,approximately 40%
same,"number of thrips attached to the fourth true leaf, of that of the control",[3]; 100 μM PDJ sprayed 3 days after start of development of fourth true leaf,approximately 5%
same,"number of thrips attached to the fourth true leaf, of that of the control",[3]; 100 μM PDJ sprayed 7 days after start of development of fourth true leaf,approximately 10%
same,"number of thrips attached to the fourth true leaf, of that of the control",[3]; 100 μM PDJ sprayed 10 days after start of development of fourth true leaf,approximately 40%
same,"number of thrips attached to the fourth true leaf, of that of the control",[3]; 100 μM PDJ sprayed 15 days after start of development of fourth true leaf,approximately 50%
same,"number of thrips attached to the fourth true leaf, of that of the control",[3]; [4],approximately 100%
same,total number of thrips attached to the first to third true leaves vs control,[3]; [4],much smaller than that of the control
same,repellency against Frankliniella intonsa,Frankliniella intonsa; cabbage,sufficient repellency
same,repellency against Frankliniella intonsa,Frankliniella intonsa; chrysanthemum,sufficient repellency
same,repellency against Frankliniella intonsa,Frankliniella intonsa; cucumber,sufficient repellency
same,repellency against Frankliniella intonsa,Frankliniella intonsa; green pepper,sufficient repellency
same,repellency against Frankliniella intonsa,Frankliniella intonsa; strawberry,sufficient repellency
same,repellency against Frankliniella intonsa,Frankliniella intonsa; tomato,sufficient repellency
